The text below walks through data of patent publication US8637028B2, “Adjuvant incorporation in immunonanotherapeutics” (President and Fellows of Harvard College, priority 2008, dated 2014).

Test [1] is described as follows: Anti-nicotine IgG in immunized mice (ELISA). The following applies: FIGS. 36 and 37. Type of test: in vivo, mouse. A general note: An ELISA detects its analyte on a solid surface through an enzyme-linked reagent.
Test [2] concerns OT-II CD4 T cells. As to the kind of experiment: In vivo CD4 T cell activation (CFSE-labeled OT-II cells). Details: species or system mouse. The conditions noted are these: with CpG adjuvant, three days after footpad immunization. As to the method: Subsequently, immunization experiments were performed by injecting one footpad with free OVA or with nanoparticles composed of either PLA or PLGA that encapsulated an equivalent amount of OVA as a model antigen. All antigenic mixtures also contained CpG (a TLR9 agonist) as an adjuvant. The animals were injected, sacrificed three days after immunization, and OT-II T cell activation was assessed by flow cytometry in single-cell suspensions from different tissues.
By contrast, activated T cells divide and in the process split the fluorescent dye evenly between the two daughter cells resulting in an incremental decrease in fluorescence intensity upon each successive division. Thus, the greater the left shift in CFSE, fluorescence the stronger T cells were activated.

Regarding `CN1CCCC1c1cccnc1` (centres unmarked) [free nicotine, nicotine], the “production of nicotine antibodies” value in test [1] was “does not elicit the production of nicotine antibodies”.

“free OVA: free chicken ovalbumin model antigen”: the “local T cell proliferation in distal lymphoid tissues (brachial lymph node, spleen)” value in test [2] is “only undivided cells or cells with very low CFSE content”.
